Columns and labels:
[1] = system: tubulin (colchicine site); assay: [3H]-colchicine competition for binding tubulin; conditions: 20 min, 37° C.
Procedure: FIG. 3a-d. […] (a) Effect of stilbene 4a. Pure tubulin was incubated with various concentrations of stilbene 4a, 10 μM nocodazole, and 10 μM paclitaxel in the polymerization buffer. The OD at 340 nm was monitored every minute by SpectraMAX 250 and plotted against time. (b) Effect of stilbene 4c. (c) Comparison of same concentrations of stilbenes 4a, 4a trans, 4c and 4c trans with control. […] The radioactivity of the tubulin was counted. […] All experiments were done in triplicates.
Tubulin retained in the Microcon was washed three times with PBS. The radioactivity of the final concentrated tubulin was determined by a scintillation counter.

[2] = system: MDA-MB231 breast cancer cells; assay: Alamar Blue cell growth inhibition, MDA-MB231; format: cell-based; conditions: based on previous IC50 data
In short: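 Cells at 50% confluence treated in triplicate for 48 hours with 0, 0.01, 0.03, 0.1, 0.3, 1.0, 3.0, 10 μM compound or 0.1% DMSO vehicle. Alamar Blue added at 1/10 volume for 2 hours, absorbance at 570 and 600 nm; percentage growth calculated against untreated cells using the extinction-coefficient formula.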

UCI101 cells = assay: cell cycle analysis (propidium iodide, FACScan), UCI101; format: cell-based
Procedure: Cells were stained with propidium iodide and analyzed with FACScan. Both 5b at 3 μM and stilbene 4a at 30 nM induce a subG0/1 population that represents the dead population. At higher concentrations of either compound, nearly all cells are dead.
(a) In vitro sensitivity of UCI101 cells toward three potential stilbene prodrugs, 5a-c, was tested in 96-well plates using Alamar Blue™ assays to determine cell growth inhibition. […] (b) 5b induces cell cycle change and apoptosis in UCI101 cells. […] A subG0/1 population, representing apoptotic cells, appeared along with a decrease of the G1/G2 ratio after cells were treated with 3 μM 5b. […] (c) Cells treated with stilbene 4a and 5b were stained with phospho-histone 3B, a mitotic marker. The positive signals of phospho-histone 3B were shown in green and nuclei were stained with DAPI in blue. […] (d) In vivo efficacy of 5b compared with stilbene 4a. Nude mice were injected with UCI101 ovarian cancer cells and treated with 7 doses of 5b,c or stilbene 4a every 2-3 days. Tumor volume was calculated and plotted against days.

[3] = system: Hep3B hepatocellular carcinoma cells (xenograft); assay: DCE-MRI tumor vascular perfusion, Hep3B xenograft; format: in vivo, mice; conditions: 50 mg/kg intraperitoneally
Procedure: Mice with established tumor xenografts were used for this study. […] Tumor and kidney, as the representative normal organ, were marked by arrowheads. […] Mice were then left overnight to wash out gadolinium and treated with stilbene 4a at 50 mg/kg intraperitoneally. 4 hours after stilbene injection, mice were imaged with the same protocol. […] Only a small amount of residual gadolinium was still in the tissues.
In order to establish that stilbene suppresses tumor perfusion by damaging tumor endothelial cells, we first incubated human vascular endothelial cells with various concentrations of stilbenes in vitro. After 24 hours of incubation, cells were then fixed with 2% paraformaldehyde and stained with anti-tubulin antibody to examine the tubulin disruption and with DAPI to analyze nuclear fragmentation. Dynamic-contrast enhanced magnetic resonance imaging (MRI) scanning was used to investigate tumor perfusion in vivo. Immunodeficient nude mice were first injected with Hep3B hepatocellular carcinoma cells subcutaneously. […] A region of interest (ROI) was chosen from the scan and the MRI signal in the ROI was plotted against time and the initial steepest slope of the curve was calculated to represent the maximal perfusion of the ROI. […] The perfusion rate of the muscle region was normalized and set at 100% and the rate of perfusion in tumor was calculated versus the muscle. […]

Structure (SMILES): COc1cc(/C=C\c2ccc(OC)c(N)c2)cc(OC)c1 [4a, (Z)-5-[2-(3,5-Dimethoxy-phenyl)-vinyl]-2-methoxy-phenylamine]
- competition with [3H]-colchicine for tubulin [1]: dose-dependent suppression of tubulin-colchicine interaction
- times less potent than CA4 [2]: 10
- cell cycle effect (UCI101 cells; 4a at 30, 100 nM, 5b at 1, 3, 10 μM): induced G2/M cell cycle arrest and accumulation of the subG1/0 population
- concentration inducing a subG0/1 (dead) population (UCI101 cells; 24 hours): 30 nM
- normal vascular perfusion [3]: without compromising normal vascular perfusion
- tumor vascular perfusion (gadolinium enhancement) ([3]; 4 hours after injection): significantly less gadolinium enhancement

Reference: patent publication US7781580B2, “Stilbene derivatives as new cancer therapeutic agents” (Virginia Commonwealth University, priority 2007, dated 2010)
